Measured values published in patent US20060189519A1, “Anti-angiogenic fragments fo pigment epithelium-derived factor (pedf)” (priority 2002, published 2006).

Legend:
[1] = test system: bFGF-induced corneal angiogenesis; assay: Mouse corneal neovascularization assay (bFGF pellet); format: in vivo; conditions: for Positive comeas/total: bFGF 50 ng/pellet, day 5 after implantation; for effect on mouse corneal neovascularization in vivo: bFGF pellet, peptides at 10 and 100 μM
Protocol: Angiogenesis was induced in the mouse cornea by implanting slow release pellets containing bFGF (50 ng/pellet). Peptides at 10 and 100 μM were added where indicated. Angiogenesis was observed on day 5 after implantation and a vigorous ingrowth of the blood vessels reaching the pellet was scored as a positive response. The peptide abbreviations are as above; PBS is phosphate buffer solution.

HUVECs = assay: Endothelial cell apoptosis assay (TUNEL, ApopTag); format: cell-based, human; conditions: for induction of endothelial cell apoptosis: in vitro, low serum (0.2%)
Protocol: FIG. 5. Endothelial cell apoptosis induced by TGA and ERT-L PEDF peptides. 90% confluent HUVECs were treated with increasing concentrations of TGA (FIG. 5A) or ERT-L (FIG. 5B). Apoptotic cells were detected with ApopTag assay kit (Intergen) and percent of TUNEL positive cells calculated.
Apoptosis by PEDF and by the 34-mer were mediated by the same signaling events including activation of JNK-1. Apoptosis by both PEDF and by its 34-mer fragment were abolished in the presence of JNK-1 specific inhibitor SP600125 (BioMol). […] The 44-mer had no activity.
Cells were plated on gelatinized glass cover slips in 24-well tissue culture plates at 5×10^4 cells/well, treated with indicated compounds in low serum (0.2%), fixed in 1% buffered paraformaldehyde, stained using the ApopTag in situ cell death detection kit according to the manufacturer's instructions (Serologicals corporation) and counterstained with propidium iodide. The percentage of terminal deoxynucleotidyl transferase-mediated dUTP nick end labeling (TUNEL)-positive cells was calculated as the number of TUNEL-positive cells (counted in 2-6 randomly selected fields from two different chambers) divided by the total number of cells. 600-1200 cells were scored for each treatment.
Human umbilical vein endothelial cells (HUVEC, NCI) were grown to 90% confluence and treated with peptides overnight in low (0.2%) serum. Apoptotic cells were detected using TUNEL assay kit (InterGene) and percent apoptotic cells were calculated (FIG. 5).

[2] = test system: Microvascular endothelial cells (HMVECs); assay: VEGF-induced endothelial cell chemotaxis/migration assay (Boyden chamber); format: cell-based, human; conditions: at 100 nM (44-mer: 100 nM or higher)
Protocol: FIG. 3. In vitro anti-angiogenic activity by […] and 44-mer PEDF peptides. Microvascular endothelial cells (HMVECs) chemotaxis up the gradient of pro-angiogenic VEGF was examined in the presence of the 44-mer or 34-mer. FIG. 3A Recombinant PEDF (rPEDF, BH) (10 nM), 34-mer (1 μM) and 44-mer (1 μM) were tested alone (empty bars), or in the presence of VEGF (hatched bars). Anti-PEDF neutralizing antibodies were added where shown (filled bars). FIG. 3B 34-mer (●) and 44-mer (♦) were tested with VEGF (100 pg/ml) at increasing concentrations. ED50 was determined using regression curves.
Two large peptides from PEDF, a “34-mer” (amino acids 24-57 of SEQ ID NO:1) and a “44-mer” (residues 58-101 of SEQ ID NO:1), were tested for their ability to block angiogenesis. […] (Alberdi et al., 1999) In the anti-angiogenesis assays, only the 34-mer inhibited VEGF-induced angiogenesis in vitro. Anti-angiogenic activity of the 34-mer peptide was blocked with neutralizing antibodies effective against the whole molecule.
HUVEC migration assay are performed as previously described (Good et al., PNAS, 1990). […] Then, the stained membranes are dried, mounted, and the cells migrated to the top part of membrane counted in 10 high-powered (400×) fields. […]

[3] = test system: Y-79 retinoblastoma cells; conditions: previously shown (Alberdi et al., 1999); cited from earlier work
[4] = test system: endothelial cells (HUVEC); assay: Endothelial cell migration up the gradient of pro-angiogenic bFGF; format: cell-based, human
Protocol: HUVEC migration assay are performed as previously described (Good et al., PNAS, 1990). The cells are starved overnight in MCDB131 medium supplemented with 0.1% bovine serum albumin (BSA, Sigma) and placed at 1.5 10^6 cells/ml in the bottom part of a 48-well modified Boyden chambers (Neuroprob Corp.), separated from the top part by gelatinized micro porous membrane (8 μm pore size, Nucleopor/Whatman). The inverted chambers are incubated for 1.5 h for the cells to attach. The chamber are then re-inverted, test substances added to the top part of the top well and incubated for additional 3h30 to allow migration. The chamber are disassembled, the membranes fixed, the cells visualized using Diff-Quick staining kit (Fisher). Then, the stained membranes are dried, mounted, and the cells migrated to the top part of membrane counted in 10 high-powered (400×) fields. MCDB131 containing 0.1% BSA, is used as a negative control and 10 ng/ml bFGF as a positive control. Each substance is tested in quadruplicate to allow statistical evaluation of the data within a single experiment. Each experiment is repeated 3 times to ensure the reproducibility.
The peptides were tested in vitro for their ability to block endothelial cell migration up the gradient of pro-angiogenic bFGF.

Row | Substance | Positive comeas/total ([1]; peptide 10 μM) | Positive comeas/total ([1]; peptide 100 μM) | induction of endothelial cell apoptosis (HUVECs) | inhibition of VEGF-induced endothelial cell chemotaxis [2] | binding to and differentiation of Y-79 retinoblastoma cells [3] | ability to block endothelial cell migration up the gradient of bFGF [4] | effect on mouse corneal neovascularization in vivo [1] | dose at which maximal apoptosis effect is reached (HUVECs; cultured endothelial cells) [nM]
1 | acetyl-ERTESIIHRAL-amide (Ac-ERTESIIHRAL-NH2) [ERT-S, PEDF residues 78-88] | 5/6 | 4/6 | – | – | – | – | – | –
2 | 44-mer: PEDF peptide, residues 58-101 of SEQ ID NO:1, previously shown to have neurotrophic activity (VLLSPLSVATALSALSLGAEQRTESIIHRALYYDLISSPDIHGT; listed as Homo sapiens) [reference compound] | – | – | no activity | no inhibitory activity | bind to and induce differentiation | – | – | –
3 | acetyl-LYYDLISSPDIHGTYKE-amide (Ac-LYYDLISSPDIHGTYKE-NH2) [PEDF residues 88-104] | 5/6 | 5/5 | – | – | – | – | – | –
4 | acetyl-SSPDIHGTYKE-amide (Ac-SSPDIHGTYKE-NH2) [PEDF residues 94-104] | 6/6 | 4/4 | – | – | – | – | – | –
5 | acetyl-ERTESIIHRALYYDLIS-amide (Ac-ERTESIIHRALYYDLIS-NH2) [ERT-L, PEDF residues 78-94] | 2/6 | 1/5 | induced apoptosis | – | – | showed anti-angiogenic activity | blocked mouse corneal neovascularization | –
6 | DPFFKVPVNKLAAAVSNFGYDLYRVRSSMSPTTN [34-mer] | – | – | – | inhibited | – | – | – | 100
7 | acetyl-TGALVEEEDPF-amide (Ac-TGALVEEEDPF-NH2) [PEDF residues 16-26] | 4/6 | 2/6 | induced apoptosis | – | – | showed anti-angiogenic activity | blocked mouse corneal neovascularization | –
